From patent US20220257774A1, “AROMATIC AMINE AR AHD BET TARGETING PROTEIN DEGRADATION CHIMERA COMPOUND AND USE” (HINOVA PHARMACEUTICALS INC., priority 2019, published 2022)

Tests used:
Type in all cases: cell-based
LNCaP/AR cells = experiment: Inhibition of the proliferation of LNCap/AR cells (CCK-8); conditions: 144 h; LNCaP/AR cells, 6 days culture, CCK-8; read-out: LNCap/AR IC50
Procedure, shortened: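 LNCaP/AR cells (1000/well, RPMI1640 + 10% FBS) were treated for 6 days at 37 °C with 9-point 3-fold dilutions from 10 μM final, 0.1% DMSO, in duplicate. Viability was read by CCK-8 absorbance at 450 nm after 1 h, and IC50 came from a dose-response-inhibition fit.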

22RV1 cells = experiment: Inhibition of the proliferation of drug-resistant prostate cancer cell 22RV1 (CCK-8); conditions: Homo sapiens; 22RV1 cells (enzalutamide-resistant), same method
Procedure, shortened: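 22RV1 cells, 1000/well in RPMI1640 with 10% FBS, treated in duplicate with 9-point 3-fold dilutions from 10 μM (0.1% DMSO final). After 6 days at 37 °C, CCK-8 added for 1 h and OD450 read. IC50 from dose-response inhibition fit.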

Androgen receptor (AR) = experiment: Down-regulation/degradation of AR determined by Western blot in CWR22RV1 cells; conditions: concentration 100 nM, 24 h
Experimental: (§1) The Down-Regulation on the Protein Expression of Androgen Receptors AR and Brd4 Determined by Western Blot CWR22RV1 cells (National Collection of Authenticated Cell Cultures. TCHu100) FBS (Gibco, Cat. No. 10099-141) 0.01M PBS (Biosharp. Cat. No. 162262) RIPM1640 (Hyclone, Cat. No. 308090.01) Penicillin-Streptomycin (Hyclone. Cat. No. SV30010) DMSO (Sigma. Cat. No. D5879) Centrifuge tube, 15 ml (Excell Bio. Cat. No. CS015-0001) Cell culture plate (Excell Bio. Cat. No. CS016-0128) 6-well cell culture cluster (Corning, Cat. No. 3516) RIPA lysate buffer (Beyotime, Cat. No. P0013B) Protein loading buffer (Beyotime, Cat. No. P0015L) CA protein assay kit (Beyotime, Cat. No. P0012) SDS-PAGE gel preparation kit (Chengdu Baihe Technology Co., Ltd. Cat. No. PG112) Anti-β-tubulin mouse mAb (Zen Bioscience, Cat. No. 200608) Androgen Receptor ([…]) XP Rabbit mAb (CST. Cat. No. 5153) Anti-cMyc(D3N8F) Rabbit mAb (CST. Cat. No. 13987) Anti-BRD4(E2A7X) rabbit mAb (CST, Cat. No. 13440) Peroxidase Affinipure(HRP) Goat Anti-Mouse IgG (Zen Bioscience, Cat. No. 511103) Peroxidase Affinipure(HRP) Goat Anti-Rabbit IgG (Zen Bioscience, Cat. No. 511203) TBST (Biosharp. Cat. No. B[…]) ECL chemiluminescence kit (Beyotime, Cat. No. […]1 cells were subcultured in cell culture media, and then the cells in good growth condition were seeded in a 6-well plate at 2 ml/well (1×10^6 cells/well), and cultured overnight in a 37° C., 5% CO2 cell incubator. 2) The drug was prepared as a 10 mM stock solution with dimethyl sulfoxide (DMSO). […] The plate was gently tapped to thoroughly mix. In addition, the experiment included negative control wells (containing equal amount of DMSO) and positive control wells. 3) After culturing 24 hi, the cells were lysed with RIPA cell lysate, and the protein was extracted. […] The first antibody (Androgen Receptor ([…]) XP Rabbit mAb. Anti-cMyc(D3N8F) Rabbit mAb, Anti-BRD4(E2A7X) rabbit mAb and Anti-β-Tubulin Mouse mAb) was added and incubated overnight at 4° C. The membrane was rinsed with TBST solution three times, 10 min for each time. The secondary antibody (horseradish peroxidase labeled goat anti mouse IgG) was added and incubated at room temperature for 2 h, and then the membrane was washed with TBST solution three times, 10 m for each time. Finally. ECL chemiluminescence solution was added, and then photos were taken with automatic chemiluminescence instrument to collect pictures for analysis.

BRD4 = target: T1, BRD4 (Homo sapiens, UniProt O60885); experiment: Down-regulation/degradation of BRD4 determined by Western blot in CWR22RV1 cells; conditions: concentration 100 nM, 24 h
T1 construct: CWR22RV1 cells were subcultured in cell culture media; endogenous in cells; host or cells: CWR22RV1 cells
Experimental: as §1

Row | SMILES | IC50 (LNCaP/AR cells) [µM] | IC50 (22RV1 cells) [µM] | AR (% degradation) (Androgen receptor (AR)) | BRD4 (% degradation) (BRD4)
1 | Cc1ccc(-c2c(C)noc2C)cc1N(CCCNc1ccc2c(c1)C(=O)N(C1CCC(=O)NC1=O)C2=O)c1ccc(C2(C#N)CC2)cc1 (stereo not drawn) [Compound 172, 1-(4-((5-(3,5-Dimethylisoxazol-4-yl)-2-methylphenyl)(3-((2-(2,6-dioxopiperidin-3-yl)-1,3-dioxoisoindolin-5-yl)amino)propyl)amino)phenyl)cyclopropane-1-nitrile] | 0.501 to 2 | 0.101 to 0.5 | D (<20% of the target protein was degraded) | D (<20% of the target protein was degraded)
2 | Cc1ccc(-c2c(C)noc2C)cc1N(CC(C)OC1CN(c2ccc3c(c2)C(=O)N(C2CCC(=O)NC2=O)C3=O)C1)c1ccc(C2(C#N)CC2)cc1 (stereo not drawn) [Compound 174, 1-(4-((5-(3,5-Dimethylisoxazol-4-yl)-2-methylphenyl)(2-((1-(2-(2,6-dioxopiperidin-3-yl)-1,3-dioxoisoindolin-5-yl)azacyclobutane-3-yl)oxy)propyl)amino)phenyl)cyclopropane-1-nitrile] | 0.501 to 2 | < 0.1 | D (<20% of the target protein was degraded) | D (<20% of the target protein was degraded)
3 | Cc1ccc(-c2c(C)noc2C)cc1N(CC(C)OC1CN(c2cc3c(cc2F)C(=O)N(C2CCC(=O)NC2=O)C3)C1)c1ccc(C2(C#N)CC2)cc1 (stereo not drawn) [Compound 178, 1-(4-((5-(3,5-dimethylisoxazol-4-yl)-2-methylphenyl)(2-((1-(2-(2,6-dioxopiperidin-3-yl)-6-fluoro-1-oxoisoindolin-5-yl)azetidin-3-yl)oxy)propyl)amino)phenyl)cyclopropane-1-nitrile] | < 0.1 | < 0.1 | B (79%-50% of the target protein was degraded) | A (>80% of the target protein was degraded)
4 | Cc1ccc(-c2c(C)noc2C)cc1N(CC(C)OC1CN(c2ccc3c(c2)CN(C2CCC(=O)NC2=O)C3=O)C1)c1ccc(C2(C#N)CC2)cc1 (stereo not drawn) [Compound 180, 1-(4-((5-(3,5-dimethylisoxazol-4-yl)-2-methylphenyl)(2-((1-(2-(2,6-dioxopiperidin-3-yl)-1-oxoisoindolin-5-yl)azacyclobutane-3-yl)oxy)propyl)amino)phenyl)cyclopropane-1-nitrile] | < 0.1 | < 0.1 | D (<20% of the target protein was degraded) | A (>80% of the target protein was degraded)
5 | Cc1ccc(-c2c(C)noc2C)cc1N(C[C@H]1CC[C@H](CNc2ccc3c(c2)C(=O)N(C2CCC(=O)NC2=O)C3)CC1)c1ccc(C2(C#N)CC2)cc1 (stereo partly drawn) [Compound 193] | < 0.1 | < 0.1 | D (<20% of the target protein was degraded) | B (79%-50% of the target protein was degraded)
6 | Cc1ccc(-c2c(C)noc2C)cc1N(C[C@H]1CC[C@H](CNc2ccc3c(c2)CN(C2CCC(=O)NC2=O)C3=O)CC1)c1ccc(C2(C#N)CC2)cc1 (stereo partly drawn) [Compound 194] | 0.101 to 0.5 | < 0.1 | D (<20% of the target protein was degraded) | D (<20% of the target protein was degraded)
